Laboratory results reported in PubChem BioAssay (NCI).
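Each compound was tested at five concentrations against cells in 96-well plates for 48 hours. TGI denotes the concentration required for complete inhibition of growth.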

Key:
Assay in all cases: DTP human tumour cell line panel, 48 h
[1] = system: LOX IMVI melanoma
[2] = system: NCI-H23 lung
[3] = system: OVCAR-3 ovarian
[4] = system: IGROV1 ovarian
[5] = system: HCC-2998 colon
[6] = system: SK-MEL-2 melanoma
[7] = system: SNB-19 CNS
[8] = system: RXF 393 renal
[9] = system: SNB-75 CNS
[10] = system: PC-3 prostate

SMILES | TGI [1] [µM] | TGI [2] [µM] | TGI [3] [µM] | TGI [4] [µM] | TGI [5] [µM] | TGI [6] [µM] | TGI [7] [µM] | TGI [8] [µM] | TGI [9] [µM] | TGI [10] [µM]
CC1(C)COC(c2c(-c3ccccc3)noc2CS(=O)c2ccccc2)=N1 (stereo not given) | > 100 | > 100 | > 100 | > 100 | > 100 | 70.2 | > 100 | > 100 | > 100 | –
CCN(CC)CCCCC1CCN(CC(=O)N2c3ccccc3NC(=O)CC2C)CC1 (stereo not given) | 47.6 | > 100 | > 100 | > 100 | > 100 | > 100 | > 100 | > 100 | > 100 | –
C=CCOC(=O)CCCCCCCCCCCCCCCOC(=O)C1=C(CCC[C@@H](C)O[Si](C)(C)C(C)(C)C)NC(=O)N2[C@H](CC3(CC/C=C\[C@H](CC)O[Si](C(C)C)(C(C)C)C(C)C)OCCO3)CC[C@H]12 | – | > 100 | > 100 | – | > 100 | > 100 | > 100 | – | > 100 | > 100
O=CNNC(=O)Nc1ccc(Cl)cc1 | – | > 100 | – | > 100 | > 100 | – | > 100 | > 100 | > 100 | –
CC12CC(C/C1=N/O)C(C)(C)C2 (stereo not given) | – | > 100 | > 100 | > 100 | > 100 | – | > 100 | > 100 | > 100 | > 100
O=C1CSC2(CC(/C=C/c3ccccc3Br)=NN2c2cccc(S(=O)(=O)O)c2)N1c1nc2ccccc2s1 (stereo not given) | > 100 | > 100 | – | > 100 | > 100 | > 100 | > 100 | > 100 | > 100 | > 100
O=C(OCc1ccccc1C1CSCSC1)c1cc(C(=O)OCc2ccccc2C2CSCSC2)c(C(=O)OCc2ccccc2C2CSCSC2)cc1C(=O)OCc1ccccc1C1CSCSC1 | > 100 | > 100 | > 100 | > 100 | – | > 100 | – | > 100 | > 100 | –
O=C(c1ccco1)C1CC(c2ccc3ccccc3c2O)=NN1c1ccc([N+](=O)[O-])cc1[N+](=O)[O-] (stereo not given) | – | > 100 | > 100 | > 100 | > 100 | 97.3 | – | > 100 | 89.1 | > 100
OC12CCCCCC1(N1CCOCC1)c1ccccc12 (stereo not given) | > 100 | > 100 | > 100 | > 100 | > 100 | > 100 | > 100 | > 100 | > 100 | –
CC(C)C1CC(CO)(CNc2cc(Cl)nc(N)n2)C1 (stereo not given) | > 100 | – | > 100 | > 100 | > 100 | > 100 | > 100 | > 100 | – | > 100
Cc1cc(=O)[nH]c(NNC(C#N)c2ccc([N+](=O)[O-])cc2)n1 (stereo not given) | > 100 | > 100 | > 100 | > 100 | – | > 100 | – | > 100 | > 100 | –
CC(C)(C)c1c(C(C)(C)C)c(=O)c1=O | > 100 | > 100 | > 100 | – | > 100 | > 100 | > 100 | > 100 | > 100 | > 100
O=c1c2c(nc3n1CCC3)sc1c(O)c(Br)ccc12 | 27.1 | 92.7 | 36.7 | 82.5 | 38 | 39.3 | > 100 | > 100 | > 100 | –
